Measured values from the supplement of paper PMC11451515.

Experiments:
Conditions in all cases: 48 h
P12-Ichikawa [1] = experiment: AUC of viability dose-response curve (% viability x log10 dose units); higher = less sensitive
Summary of the method: (§1)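 Over 48 h at 37°C, leukemia cells in 1536-well plates (500 or 1000 cells/well), adapted to each medium, received library compounds in DMSO at 11 threefold doses from 47 μM to 0.79 nM. CellTiter-Glo One luminescence, normalised per plate to DMSO and cell-free wells, was fitted by a four-parameter log-logistic function of log10 dose. The area under the curve was then integrated by trapezoidal rule, after scaling curves above full viability and removing those that failed quality control.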

SEM cells [2] = experiment: as above
Summary of the method: as §1

NOMO1 [3] = experiment: as above
Summary of the method: as §1

SEM cells [4] = experiment: cell viability relative to DMSO control; higher = less cytotoxic
Summary of the method: (§2)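 Viability values are per-plate percentages of DMSO wells, with background from cell-free wells. Library compounds in DMSO were pin-dosed, in an 11-point threefold series from 47 μM to 0.79 nM, onto NOMO1 or SEM (500 cells/well) or P12-Ichikawa (1000 cells/well) leukemia cells in 1536-well plates (5 μl). Those cells had been adapted for at least four passages in each medium, and CellTiter-Glo One luminescence was read after 48 h at 37°C.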

NOMO1 [5] = experiment: as above
Summary of the method: as §2

P12-Ichikawa [6] = experiment: as above
Summary of the method: as §2

O=C(Nc1cccc(Cl)c1)Nc1ncc(CCNc2ncnc3ccsc23)s1
AUC of viability dose-response curve
Conditions | NOMO1 [3] | P12-Ichikawa [1] | SEM cells [2]
HPLM + 10% dialyzed FBS | 362 | 290 | 301
RPMI 5 mM glucose + 10% FBS | 374 | 306 | 272
RPMI 5 mM glucose + 10% dialyzed FBS | 385 | 301 | 274

NCC1(CC(=O)O)CCCCC1
AUC of viability dose-response curve
Conditions | NOMO1 [3] | P12-Ichikawa [1] | SEM cells [2]
HPLM + 10% dialyzed FBS | 468 | 466 | 460
RPMI 5 mM glucose + 10% FBS | 442 | 434 | 475
RPMI 5 mM glucose + 10% dialyzed FBS | 458 | 459 | 459

cell viability [%], SEM cells [4]
Conditions | HPLM + 10% dialyzed FBS | RPMI 5 mM glucose + 10% dialyzed FBS
0.000781 µM | 102 | 126
0.00234 µM | 113 | 122
0.00702 µM | 107 | 113
0.0211 µM | 122 | 119
0.0632 µM | 120 | 124
0.19 µM | 130 | 117
0.569 µM | 96.2 | 78
1.71 µM | 59.5 | 59.1
5.12 µM | 121 | 140
15.4 µM | 127 | 136
46.1 µM | 132 | 112

C[C@@H]\1COC(=N1)\NC2=CC3=C(C=C2)N=CN=C3NC4=CC(=C(OCC5=NC=CS5)C=C4)Cl
AUC of viability dose-response curve
Conditions | NOMO1 [3] | P12-Ichikawa [1] | SEM cells [2]
HPLM + 10% dialyzed FBS | 454 | 455 | 461
RPMI 5 mM glucose + 10% FBS | 447 | 447 | 457
RPMI 5 mM glucose + 10% dialyzed FBS | 463 | 449 | 457

CN(Cc1cnc2nc(N)nc(N)c2n1)c1ccc(C(=O)N[C@@H](CCC(=O)O)C(=O)O)cc1
AUC of viability dose-response curve
Conditions | NOMO1 [3] | P12-Ichikawa [1] | SEM cells [2]
HPLM + 10% dialyzed FBS | 304 | 245 | 277
RPMI 5 mM glucose + 10% FBS | 390 | 277 | 328
RPMI 5 mM glucose + 10% dialyzed FBS | 278 | 258 | 249

Conditions | cell viability [%]
NOMO1 [5], RPMI 5 mM glucose + 10% FBS, 0.000781 µM | 116
NOMO1 [5], RPMI 5 mM glucose + 10% FBS, 0.00234 µM | 125
NOMO1 [5], RPMI 5 mM glucose + 10% FBS, 0.00702 µM | 123
NOMO1 [5], RPMI 5 mM glucose + 10% FBS, 0.0211 µM | 135
NOMO1 [5], RPMI 5 mM glucose + 10% FBS, 0.0632 µM | 121
NOMO1 [5], RPMI 5 mM glucose + 10% FBS, 0.19 µM | 136
NOMO1 [5], RPMI 5 mM glucose + 10% FBS, 0.569 µM | 107
NOMO1 [5], RPMI 5 mM glucose + 10% FBS, 1.71 µM | 104
NOMO1 [5], RPMI 5 mM glucose + 10% FBS, 5.12 µM | 73.1
NOMO1 [5], RPMI 5 mM glucose + 10% FBS, 15.4 µM | 26.7
NOMO1 [5], RPMI 5 mM glucose + 10% FBS, 46.1 µM | 24.4
SEM cells [4], HPLM + 10% dialyzed FBS, 0.000781 µM | 115
SEM cells [4], HPLM + 10% dialyzed FBS, 0.00234 µM | 141
SEM cells [4], HPLM + 10% dialyzed FBS, 0.00702 µM | 122
SEM cells [4], HPLM + 10% dialyzed FBS, 0.0211 µM | 133
SEM cells [4], HPLM + 10% dialyzed FBS, 0.0632 µM | 119
SEM cells [4], HPLM + 10% dialyzed FBS, 0.19 µM | 53.5
SEM cells [4], HPLM + 10% dialyzed FBS, 0.569 µM | 43
SEM cells [4], HPLM + 10% dialyzed FBS, 1.71 µM | 37
SEM cells [4], HPLM + 10% dialyzed FBS, 5.12 µM | 25.7
SEM cells [4], HPLM + 10% dialyzed FBS, 15.4 µM | 18
SEM cells [4], HPLM + 10% dialyzed FBS, 46.1 µM | 15.2

Cc1c(CCOc2ccc(C(=O)O)cc2)c2cc(Cl)ccc2n1C(c1ccccc1)c1ccccc1
AUC of viability dose-response curve
Conditions | NOMO1 [3] | P12-Ichikawa [1] | SEM cells [2]
HPLM + 10% dialyzed FBS | 457 | 442 | 470
RPMI 5 mM glucose + 10% FBS | 442 | 468 | 450
RPMI 5 mM glucose + 10% dialyzed FBS | 443 | 459 | 451

cell viability [%]
Conditions | NOMO1 [5] | P12-Ichikawa [6] | SEM cells [4]
HPLM + 10% dialyzed FBS, 0.000781 µM | 119 | 123 | 112
HPLM + 10% dialyzed FBS, 0.00234 µM | 121 | 110 | 118
HPLM + 10% dialyzed FBS, 0.00702 µM | 111 | 112 | 104
HPLM + 10% dialyzed FBS, 0.0211 µM | 116 | 117 | 113
HPLM + 10% dialyzed FBS, 0.0632 µM | 109 | 113 | 109
HPLM + 10% dialyzed FBS, 0.19 µM | 107 | 113 | 105
HPLM + 10% dialyzed FBS, 0.569 µM | 115 | 107 | 108
HPLM + 10% dialyzed FBS, 1.71 µM | 123 | 105 | 114
HPLM + 10% dialyzed FBS, 5.12 µM | 105 | 101 | 105
HPLM + 10% dialyzed FBS, 15.4 µM | 95 | 83.8 | 108
HPLM + 10% dialyzed FBS, 46.1 µM | 73.8 | 71.8 | 79.3
RPMI 5 mM glucose + 10% FBS, 0.000781 µM | 108 | 109 | 110
RPMI 5 mM glucose + 10% FBS, 0.00234 µM | 103 | 112 | 108
RPMI 5 mM glucose + 10% FBS, 0.00702 µM | 108 | 111 | 104
RPMI 5 mM glucose + 10% FBS, 0.0211 µM | 108 | 111 | 118
RPMI 5 mM glucose + 10% FBS, 0.0632 µM | 112 | 108 | 94.3
RPMI 5 mM glucose + 10% FBS, 0.19 µM | 97.9 | 108 | 104
RPMI 5 mM glucose + 10% FBS, 0.569 µM | 94.8 | 112 | 94.9
RPMI 5 mM glucose + 10% FBS, 1.71 µM | 74.8 | 101 | 102
RPMI 5 mM glucose + 10% FBS, 5.12 µM | 98.7 | 106 | 106
RPMI 5 mM glucose + 10% FBS, 15.4 µM | 99.9 | 103 | 106
RPMI 5 mM glucose + 10% FBS, 46.1 µM | 93.6 | 86.1 | 92.7
RPMI 5 mM glucose + 10% dialyzed FBS, 0.000781 µM | 111 | 109 | 114
RPMI 5 mM glucose + 10% dialyzed FBS, 0.00234 µM | 124 | 111 | 110
RPMI 5 mM glucose + 10% dialyzed FBS, 0.00702 µM | 125 | 116 | 97.1
RPMI 5 mM glucose + 10% dialyzed FBS, 0.0211 µM | 120 | 116 | 109
RPMI 5 mM glucose + 10% dialyzed FBS, 0.0632 µM | 116 | 107 | 95.9
RPMI 5 mM glucose + 10% dialyzed FBS, 0.19 µM | 106 | 110 | 109
RPMI 5 mM glucose + 10% dialyzed FBS, 0.569 µM | 98.6 | 104 | 111
RPMI 5 mM glucose + 10% dialyzed FBS, 1.71 µM | 115 | 113 | 104
RPMI 5 mM glucose + 10% dialyzed FBS, 5.12 µM | 113 | 99.3 | 107
RPMI 5 mM glucose + 10% dialyzed FBS, 15.4 µM | 101 | 103 | 95.3
RPMI 5 mM glucose + 10% dialyzed FBS, 46.1 µM | 97.3 | 88.8 | 92.5

O=C(Nc1ccccc1Br)N[C@@H]1CCN(c2ccc(C(F)(F)F)cn2)C1
AUC of viability dose-response curve
Conditions | NOMO1 [3] | P12-Ichikawa [1] | SEM cells [2]
HPLM + 10% dialyzed FBS | 448 | 448 | 469
RPMI 5 mM glucose + 10% FBS | 432 | 443 | 461
RPMI 5 mM glucose + 10% dialyzed FBS | 447 | 454 | 469

cell viability [%], SEM cells [4]
Conditions | HPLM + 10% dialyzed FBS | RPMI 5 mM glucose + 10% FBS
0.000781 µM | 119 | 117
0.00234 µM | 121 | 94.6
0.00702 µM | 136 | 107
0.0211 µM | 131 | 122
0.0632 µM | 127 | 113
0.19 µM | 121 | 112
0.569 µM | 126 | 105
1.71 µM | 133 | 112
5.12 µM | 122 | 98.9
15.4 µM | 120 | 106
46.1 µM | 117 | 85

COC(=O)Nc1ccc(-c2nc(N3CCOCC3)c3cnn(C4CCN(C(=O)OC)CC4)c3n2)cc1
AUC of viability dose-response curve
Conditions | NOMO1 [3] | P12-Ichikawa [1] | SEM cells [2]
HPLM + 10% dialyzed FBS | 337 | 343 | 337
RPMI 5 mM glucose + 10% FBS | 392 | 339 | 375
RPMI 5 mM glucose + 10% dialyzed FBS | 336 | 331 | 382

Cc1cc(CN2CCN(c3c(Br)cnc4[nH]c(-c5ccc(N6CCN(C)CC6)cc5)nc34)CC2)no1
AUC of viability dose-response curve
Conditions | NOMO1 [3] | P12-Ichikawa [1] | SEM cells [2]
HPLM + 10% dialyzed FBS | 377 | 329 | 317
RPMI 5 mM glucose + 10% FBS | 415 | 333 | 310
RPMI 5 mM glucose + 10% dialyzed FBS | 410 | 348 | 307

NOMO1 [5], RPMI 5 mM glucose + 10% FBS
Conditions | cell viability [%]
0.000781 µM | 120
0.00234 µM | 131
0.00702 µM | 120
0.0211 µM | 129
0.0632 µM | 138
0.19 µM | 117
0.569 µM | 113
1.71 µM | 70.2
5.12 µM | 102
15.4 µM | 78.1
46.1 µM | 80.6
